In patent US20250057793A1, “BENZOIC ACID SALTS FOR TREATMENT OF NERVOUS SYSTEM INJURIES AND DISORDERS” (The United States Government as represented by the …, priority 2021, published 2025):

Legend:
[1] = system: mice with traumatic brain injury (TBI); assay: Remyelination in corpus callosum of mice with TBI (PLP/A2B5 double-labeling); format: in vivo, mouse; conditions: 50 mg/kg body weight/day oral gavage
Method: FIG. 4 are images of the corpus collosum in mice showing the levels of proteolipid protein (PLP) and A2B5, a marker of oligodendroglial progenitor cells (OPC), in the experimental conditions after 21 days. Oral administration of sodium benzoate (NaB), but not sodium formate (NaFO), stimulates remyelination in mice with traumatic brain injury (TBI). Mice (n=6 per group) were induced moderate TBI by controlled cortical impact (CCI). Starting from 2 hours after TBI, mice were treated with NaB and NaFO (50 mg/kg body weight/day; mixed with water) orally via gavage. After 21 d of treatment, brain sections were double-labeled for PLP and A2B5.
Proteolipid protein (PLP) is a marker of oligodendrocytes and A2B5 is a marker of oligodendroglial progenitor cells (OPC). After 21 days of treatment, brain sections were double-labeled with antibodies against PLP and A2B5.

CCI-induced TBI mice [2] = assay: Lesion volume in CCI-induced mice (Cavalieri stereology); format: in vivo, mouse
Method: FIG. 5C is a plot showing lesion size in the experimental conditions. Lesion size was quantitatively measured in control mice, untreated CCI injured mice, NaB treated CCI-mice and NaFO-treated CCI-mice at 21 days post-injury. Statistical analyses were performed with Student's t-test in the injured side of the brain [^ap<0.001 (5.623×10^−7) vs control; ^bp<0.001 (=0.001) vs CCI injury].
FIGS. 10A-10C. Decrease in lesion volume in TBI mice by GTB treatment. […] FIG. 10A. […] FIG. 10C. Lesion volume was quantified in all groups of mice. Statistical analyses were performed with two way ANOVA and expressed as mean±SD to compare the lesion volume between unlesioned and lesioned side of the brain.
The estimation of lesion volume was performed based on the Cavalieri method of unbiased stereology using the StereoInvestigator software (MicroBright Biosciences, USA). Both the ipsilateral and contralateral hemisphere of brain volumes were determined using the Cavalieri estimator with a 1 mm grid spacing 1 mm. Every fourth section was analyzed beginning from a random start point. Lesion volume was estimated by subtracting the volume of the ipsilateral hemisphere from that of the contralateral hemi-sphere. Then the volume of lesion cavity estimated in brain section of untreated mice was compared with lesion volume of brain sections of drug treated mice.

[3] = system: oligodendroglial progenitor cells (OPCs); assay: Maturation of oligodendroglial progenitor cells (OPCs) into oligodendrocytes; format: cell-based, mouse; conditions: 100 μM, 18 h, serum-free, absence of FGF and PDGF
Method: FIGS. 15A-15L: Effect of sodium benzoate (NaB) on the maturation of oligodendroglial progenitor cells (OPCs) into oligodendrocytes. OPCs were isolated from P1˜P2 neonatal mouse pups, cultured in OPC media for 4 days in vitro (DIV) followed by treatment with 100 μM NaB and sodium formate (NaFO) in the absence of FGF and PDGF.
FIG. 15A) After 18 h of 100 μM NaB treatment in serum-free condition, cells were fixed and then dual immuno-stained with MBP (red) and OPC marker NG2 (green). Nuclei were stained with DAPI (blue). FIG. 15B) Similarly, OPCs were stained with PLP (red) and A2B5 (green) under similar treatment condition. Quantification of MBP+(FIG. 15C), NG2+(FIG. 15D), PLP+(FIG. 15E), and A2B5+(FIG. 15F) cells as a percentage of total cells (DAPI+). Average 5 fields per slide, total 3 slides. Results are mean+SEM. ***p<0.001. FIG. 15G) For protein expression, cells were treated with different doses of NaB for 18 h under serum free condition and then immunoblotted with PLP and MOG. FIG. 15H) Densitometric analyses of the bands relative to beta actin were done for PLP and MOG. ^ap<0.001 vs. control PLP; ^bp<0.005 vs. control MOG. FIG. 151) Cells were treated with NaB (100 μM) and NaFO (100 μM) for 4 h under serum-free condition followed by monitoring the mRNA expression of myelin-specific genes by real-time PCR (ap<0.01 vs. control PLP; ^bp<0.01 vs. control MOG; cp<0.01 vs. control MBP; dp<0.01 vs. control CNPase). OPCs were cultured on the top of randomly-oriented polycaprolactone nanofibers (Nanofiber Solutions; Cat #Z694576) for 7 days. After that, these cells were treated with 100 μM NaB (FIG. 15J) and NaFO (K) for additional 2 days followed by immunofluorescence analysis for MBP (red) (FIG. 15J, control; FIG. 15K, NaB; FIG. 15L, NaFO). […] Representative 3D constructed images of OPCs adhered to nanofibers were also shown at the right side.

CCI-induced TBI mice [4] = assay: Glial activation and iNOS in brain of CCI-induced TBI mice (immunofluorescence, Western blot); conditions: cortex and hippocampus
CCI-injured mice [5] = assay: Grid runway in CCI-injured mice; format: in vivo, mouse; conditions: 7 day post-injury, 50 mg/kg/day oral
Source text: The grid runway (65 cm length×8 cm breadth×1 cm intervals) made of parallel grid bars with interbar intervals of 1 cm apart and grid were kept above the surface on a table during the testing session. The soft padding was positioned under the grid run-way in the event for protection to avoid serious injury, if the animal falls from the grid. Each mouse was allowed to walk freely on grid and the time taken and number of steps to cross the runway was noted. Each successful foot placement on grid was recorded as a step. However, an error was considered whenever the paw slips through the grid or the paw misses a bar and extends downwards through the plane of bars. The locomotor behavior of animal on grid was evaluated by an observer blinded to the treatment on 7th and 21st day after CCI injury.

[6] = system: OPCs cultured on polycaprolactone nanofibers; assay: Myelination of synthetic polycaprolactone nanofibers by OPCs; format: cell-based, mouse; conditions: 100 μM, 2 days after 7 days culture on nanofibers
Method: FIG. 15A) After 18 h of 100 μM NaB treatment in serum-free condition, cells were fixed and then dual immuno-stained with MBP (red) and OPC marker NG2 (green). Nuclei were stained with DAPI (blue). FIG. 15B) Similarly, OPCs were stained with PLP (red) and A2B5 (green) under similar treatment condition. Quantification of MBP+(FIG. 15C), NG2+(FIG. 15D), PLP+(FIG. 15E), and A2B5+(FIG. 15F) cells as a percentage of total cells (DAPI+). Average 5 fields per slide, total 3 slides. Results are mean+SEM. ***p<0.001. FIG. 15G) For protein expression, cells were treated with different doses of NaB for 18 h under serum free condition and then immunoblotted with PLP and MOG. FIG. 15H) Densitometric analyses of the bands relative to beta actin were done for PLP and MOG. ^ap<0.001 vs. control PLP; ^bp<0.005 vs. control MOG. FIG. 151) Cells were treated with NaB (100 μM) and NaFO (100 μM) for 4 h under serum-free condition followed by monitoring the mRNA expression of myelin-specific genes by real-time PCR (ap<0.01 vs. control PLP; ^bp<0.01 vs. control MOG; cp<0.01 vs. control MBP; dp<0.01 vs. control CNPase). OPCs were cultured on the top of randomly-oriented polycaprolactone nanofibers (Nanofiber Solutions; Cat #Z694576) for 7 days. […]

TBI mice = assay: Barnes maze test in TBI mice; format: in vivo, mouse; conditions: NOR, Barnes maze and T maze, 21 days, 50 mg/kg/day oral
Method: The Barnes maze test was performed as described in our earlier studies. Briefly, the mice were initially trained for 2 consecutive days followed by examination on day 3. After each training session, maze and escape tunnel were thoroughly cleaned with a mild detergent to avoid instinctive odor avoidance due to mouse's odor from the familiar object. On day 3, a video camera (Basler Gen I Cam—Basler acA 1300-60) connected to a Noldus computer system was placed above the maze and was illuminated with high voltage light that generated enough light and heat to motivate animals to enter into the escape tunnel. The performance was monitored by the video tracking system (Noldus System). Cognitive behavior parameters were examined by measuring latency (duration before all four paws were on the floor of the escape box) and errors (incorrect response before all four paws were on the floor of the escape box).

CCI-injured mice [7] = assay: Rotarod test in CCI-injured mice; format: in vivo, mouse; conditions: 50 mg/kg/day oral
Method: The forehindlimb motor coordination and balance in animals was observed using the rotarod test as described in earlier studies. Briefly, each mouse was placed on the confined section of the rod and trial was initiated with a smooth increase in speed from 4 rpm to 40 rpm for 5 mins. […] The latency to fall was measured in seconds and used for the analysis. Following the CCI injury, each mouse performed the task three trials during the testing sessions and the average score on these three trials was used as the individual rotarod score. Each trial on the rod was terminated when the mice fell off the rod or held on to the rod by hanging and completed improper revolutions.

[8] = system: mouse RAW 264.7 macrophages; assay: NO production from stimulated RAW 264.7 macrophages (nitrite, Griess reagent); format: cell-based; conditions: cinnamein pretreatment 6 h, serum-free, 24 h; for LPS-induced production of NO (nitrite): 1 μg/ml LPS; for IFNγ-induced production of NO (nitrite): 25 U/ml IFNγ
Method: FIGS. 18A-18C. Cinnamein inhibits the induction of NO production from LPS- and IFNγ-stimulated mouse RAW 264.7 macrophages. FIG. 18A) Cells preincubated with different concentrations of cinnamein for 6 h were stimulated with 1 μg/ml LPS under serum-free condition. After 24 h of stimulation, the level of nitrite was measured in supernatants by Griess reagent. FIG. 18B) Cells preincubated with 400 μM cinnamein for different hours were stimulated with 1 μg/ml LPS under serum-free condition. After 24 h of stimulation, the level of nitrite was measured in supernatants. FIG. 18C) Cells preincubated with different concentrations of cinnamein for 6 h were stimulated with 25 U/ml IFNγ under serum-free condition. After 24 h of stimulation, the level of nitrite was measured in supernatants. Results are mean+SD of three independent experiments. *p<0.05; **p<0.01; ***p<0.001; NS, not significant.

primary mouse astrocytes = assay: Proinflammatory cytokine production in primary mouse astrocytes (ELISA); format: cell-based; conditions: cinnamein 6 h, 50 μg/ml poly IC, serum-free, 24 h
Method: FIGS. 22A-22B. Cinnamein inhibits the production of proinflammatory cytokines from polyIC-stimulated primary mouse astrocytes. Astrocytes preincubated with different concentrations of cinnamein for 6 h were stimulated with 50 μg/ml poly IC under serum-free condition. After 24 h of stimulation, levels of TNFα (FIG. 22A) and IL-6 (FIG. 22B) were measured in supernatants by ELISA. Results are mean+SD of three independent experiments. *p<0.05; **p<0.01; ***p<0.001.

primary mouse microglia = assay: Proinflammatory cytokine production in primary mouse microglia (ELISA); format: cell-based; conditions: cinnamein 6 h, serum-free, 24 h
Method: FIGS. 19A-19B. Cinnamein inhibits LPS- and polyIC-induced production of TNFα in primary mouse microglia. Microglia isolated from 2d old mouse pups were incubated with different concentrations of cinnamein for 6 h followed by stimulation with either 1 μg/ml LPS (FIG. 19A) or 50 μg/ml polyIC (FIG. 19B) under serum-free condition. After 24 h of stimulation, the level of TNFα was measured in supernatants by ELISA. Results are mean+SD of three independent experiments. *p<0.05; **p<0.01; ***p<0.001; NS, not significant.
FIGS. 20A-20B. Cinnamein suppresses the production of IL-1j3 from LPS- and poly IC-stimulated primary mouse microglia. Cells preincubated with different concentrations of cinnamein for 6 h were stimulated with either 1 μg/ml LPS (FIG. 20A) or 50 μg/ml polyIC (FIG. 20B) under serum-free condition. After 24 h of stimulation, the level of […] was measured in supernatants by ELISA. Results are mean+SD of three independent experiments. ***p<0.001.
FIGS. 21A-21B. Cinnamein decreases LPS- and polyIC-induced production of IL-6 in primary mouse microglia. Microglia were incubated with different concentrations of cinnamein for 6 h followed by stimulation with either 1 μg/ml LPS (FIG. 21A) or 50 μg/ml polyIC (FIG. 21B) under serum-free condition. After 24 h of stimulation, the level of IL-6 was measured in supernatants by ELISA. Results are mean+SD of three independent experiments. ***p<0.001.

[9] = day 7 post-injury, 50 mg/kg/day oral from 24 h after CCI
[10] = 1 μg/ml LPS, listed as Cinnamein
[11] = 50 μg/ml polyIC, listed as Cinnamein

O=C[O-].[Na+] [NaFO, sodium formate]
level of PLP in corpus callosum ([1]; 21 days of treatment): remained unable to restore
number of OPCs (A2B5 positive) in corpus callosum ([1]; 21 days of treatment): remained unable
remyelination ([1]; 21 d of treatment): not
total lesion volume / size of lesion cavity (CCI-induced TBI mice [2]; cresyl violet sections, 21 days post-injury, 50 mg/kg/day oral): not
structural-tissue integrity of damaged hippocampus (CCI-induced TBI mice [2]; oral treatment started 24 h after CCI): remained unable to exhibit such protection
differentiation/maturation of OPCs into oligodendrocytes (MBP+, PLP+, NG2+, A2B5+ cells) [3]: did not promote
iNOS / iNOS-positive cells (CCI-induced TBI mice [4]; day 7, 50 mg/kg/day oral): not
GFAP-positive astrocytes (CCI-induced TBI mice [4]; [9]): remained unable to inhibit glial activation
Iba1-positive microglia (CCI-induced TBI mice [4]; [9]): remained unable to inhibit glial activation
gait movement on grid runway (steps, time taken, foot misplacement) (CCI-injured mice [5]): not
myelination of synthetic fibers (MBP immunofluorescence) [6]: not
hippocampus-dependent behaviors / cognitive performance (TBI mice): remained unable to improve
latency to fall on rotarod (CCI-injured mice [7]; 7 day post-injury): not
latency to fall on rotarod (CCI-injured mice [7]; 21 day post-injury): not

O=C(/C=C/c1ccccc1)OCc1ccccc1 [cinnamein, Cinnamein]
LPS-induced production of NO (nitrite) [8]: significantly inhibited
LPS-induced production of NO (nitrite) ([8]; listed as Cinnamein): inhibits
IFNγ-induced production of NO (nitrite) [8]: significantly inhibited
IFNγ-induced production of NO (nitrite) ([8]; listed as Cinnamein): inhibits
polyIC-induced production of IL-6 (primary mouse astrocytes): inhibited
polyIC-induced production of TNFα (primary mouse astrocytes): inhibited
polyIC-induced production of IL-6 (primary mouse astrocytes; listed as Cinnamein): inhibits
polyIC-induced production of TNFα (primary mouse astrocytes; listed as Cinnamein): inhibits
LPS-induced production of IL-6 (primary mouse microglia; 1 μg/ml LPS): strongly inhibited
LPS-induced production of TNFα (primary mouse microglia; 1 μg/ml LPS): strongly inhibited
production of IL-1β (primary mouse microglia; 1 μg/ml LPS): strongly inhibited
LPS-induced production of IL-6 (primary mouse microglia; [10]): decreases
LPS-induced production of TNFα (primary mouse microglia; [10]): inhibits
production of IL-1β (primary mouse microglia; [10]): suppresses
polyIC-induced production of IL-6 (primary mouse microglia; 50 μg/ml polyIC): strongly inhibited
polyIC-induced production of TNFα (primary mouse microglia; 50 μg/ml polyIC): strongly inhibited
production of IL-1β (primary mouse microglia; 50 μg/ml polyIC): strongly inhibited
polyIC-induced production of IL-6 (primary mouse microglia; [11]): decreases
polyIC-induced production of TNFα (primary mouse microglia; [11]): inhibits
production of IL-1β (primary mouse microglia; [11]): suppresses
